Patent publication US5663165A, “Hypolipidaemic benzothiazepine compounds” (Glaxo Wellcome Inc., priority 1992, dated 1997)

Test system: sodium-dependent 3H taurocholate uptake in rat distal ileal brush border membrane vesicles
Experiment: In vitro inhibition of bile acid uptake
Format: biochemical
Conditions: 10 μM 3H taurocholate, 30 seconds at 24° C., active (sodium-dependent) uptake vs control
Description: In vitro inhibition of bile acid uptake
Freshly prepared rat distal ileal brush border membrane vesicles (about […] vesicle protein) were incubated for 30 seconds at 24° C. in an incubation mixture comprising 10 μM ^3 H taurocholate, 100 mM NaCl (or KCl) and 80 mM mannitol in 20 mM Hepes Tris pH 7.4. Each test compound was dissolved in ethanol (or water) and then diluted with incubation mixture to an ethanol concentration of not more than 1% v/v. The incubation was terminated by rapid dilution and filtration and the filter washed with an ice-cold isotonic sodium-free buffer.
The uptake of ^3 H taurocholate was measured by the radioactivity remaining on the filter and converted to pmoles/mg vesicle protein. The active, ie sodium-dependent, uptake was obtained by subtracting the passive uptake measured in 100 mM KCl from the total uptake measured in 100 mM NaCl. The active uptake for each test compound was compared with a control active uptake and the results expressed at % inhibition of bile acid uptake.

Question: How did the “% inhibition of bile acid uptake” value (0.3 μM test compound) turn out when `CCCC[C@]1(CC)CS(=O)(=O)c2ccccc2[C@@H](c2ccccc2)N1` [Synthetic Example 1, (-)-(RR)-3-butyl-3-ethyl-2,3,4,5-tetrahydro-5-phenyl-1,4-benzothiazepine-1,1-dioxide] was run?
Answer: 55%

Question: And the “% inhibition of bile acid uptake” value (1 μM test compound)?
Answer: 69%

Question: And the “% inhibition of bile acid uptake” value (3 μM test compound)?
Answer: 85%

Question: And the “% inhibition of bile acid uptake” value (10 μM test compound)?
Answer: 96%
